Data taken from patent US20230201174A1, “COMBINATION OF FINERENONE AND A SGLT2 INHIBITOR FOR THE TREATMENT AND/OR PREVENTION OF CARDIOVASCULAR AND/OR RENAL DISEASES” (BAYER AKTIENGESELLSCHAFT, priority 2020, published 2023).

Tests used:
[1] = tested on: Wistar rats with activated renin-angiotensin-aldosterone system; assay: In vivo assay for detecting natriuretic activity in conscious rats with activated RAAS; parameters: species or system rat; conditions: for Urinary Glucose concentration / Urinary K+ concentration / Urinary Na+ concentration / Urinary Volume/ body weight: 24 h urine, mean ± SEM
Description: Wistar rats (ca. 250-500 g body weight) were kept with free access to feed (Altromin) and drinking water. […] This sodium-reduced feed causes an activation of the RAAS in the animals during the 3 days run-in phase and therefore mimics a neuroendocrine activation which is characteristic for cardiorenal diseases. […] At the start of the test, the substance to be tested was administered by means of gavage in a volume of 2-3 ml/kg of body weight of a suitable solvent PEG400). Control animals received only solvent (‘S’ or solvent in table 2 below). Controls and substance tests were carried out in parallel on the same day. Control groups and substance-dose groups each consisted of 6 to 10 animals. During the test, the urine excreted by the animals was continuously collected in a receiver on the base of the cage.
In this comparison, eight different administrations were performed (cf. groups A to H):
Group A received the solvent (PEG400) only. This group serves as control group.
Groups B, C and D received three increasing dosages of empagliflozin (SGLT2 inhibitor) only. It serves to detect the effects of the monotherapy with SGLT2 inhibitor.
Group E received a finerenone only. It serves to detect the effect of the monotherapy with finerenone.
Groups F, G and H received finerenone and the three doses of SGLT2 inhibitor in combination, respectively. It serves to detect the effect of the combined therapy with finerenone and empagliflozin (SGLT2 inhibitor) (combination according to the invention).
(§1) After the treatment, the urinary volume, urinary glucose, urinary sodium and potassium concentrations were measured.

healthy volunteers = conditions: dose-dependently induced during the first 24 h; cited from earlier work
[2] = tested on: Zucker diabetic fatty (ZDF) rats; assay: In vivo assay for detecting natriuretic activity in chronically treated Zucker diabetic fatty rats; parameters: species or system rat; conditions: for Urinary Glucose concentration / Urinary K+ concentration / Urinary Na+ concentration / Urinary Volume/ body weight: Table 3, 24 h urine, mean ± SEM; for Urinary Glucose concentration / Urinary K+ concentration / Urinary Na+ concentration / Urinary Volume/ body weight / urinary sodium excretion higher in comparison to solvent control group A: ZDF rats treated 9 weeks; for influence on urinary glucose vs solvent, in words / influence on urinary potassium vs solvent, in words / influence on urinary sodium vs solvent, in words / influence on urinary volume vs solvent, in words: ZDF rats, chronic monotherapy 3 and 10 mg/kg/day, 9 weeks
Description: The Zucker diabetic fatty (ZDF) rat has a missense mutation in the gene coding the leptin receptor (fa/fa) and spontaneously develops insulin resistance, type 2 diabetes mellitus (T2DM), hyperlipidemia, moderate hypertension, and obesity, as well as progressive renal injury. Male homozygous animals develop diabetes mellitus from week 7 to 19 which is reflected in marked hyperglycemia. In addition to diabetic cardiac lesions (e.g. hypertrophy), renal pathology develops with proteinuria, mesangial expansion, macrophage infiltration, and interstitial fibrosis. Heterozygous animals are useful non-diabetic control animals since they develop neither obesity nor insulin resistance.
Male 6-7 weeks old obese (fa/fa) Zucker rats (Charles River) were placed on a high energy diet (Purina Rodent LabDiet 5008, PMI Nutrition. Richmond. Ind.) and were randomized to treatment groups or solvent group when the animals were hyperglycemic. Rats (n=14-16/group) received either solvent [ethanol/Solutol/H2O (10/40/50)] or test compounds in solvent once daily applied to (fa/fa) animals for 4 to 12 weeks.
During the experiment, the systolic blood pressure (determined by tail cuff), urine parameters (e.g. protein, glucose, electrolytes, creatinine, urea and uric acid) and blood plasma parameters (e.g. electrolytes, glucose, creatinine, urea and uric acid) were determined at regular intervals.
Histopathology is performed with cardiac and renal tissue from animals of treatment groups and placebo groups.
In this comparison, six different administrations were performed:
Group A received the solvent [ethanol/Solutol/H2O (10/40/50)] only. This group serves as control group.
Groups B and C received two increasing dosages of empagliflozin (SGLT2 inhibitor) only. It serves to detect the effects of the monotherapy with empagliflozin (SGLT2 inhibitor).
Groups D and E received increasing dosages of finerenone only. It serves to detect the effect of the monotherapy with finerenone.
Group F received a combination of the low dosages of empagliflozin (SGLT2 inhibitor) and finerenone, respectively. It serves to detect the effect of the combined therapy with finerenone and empagliflozin (SGLT2 inhibitor) (combination according to the invention).
as §1

[3] = tested on: hypertensive and proteinuric L-NAME treated renin-transgenic (mRen2)27 rats; assay: Non-diabetic cardiorenal rat model: L-NAME treated renin-transgenic (mRen2)27 rats; conditions: up to 7 weeks
Description: Cardiorenal morbidity and mortality was studied in hypertensive and proteinuric L-NAME (20 mg/L) treated renin-transgenic (mRen2)27 rats. […] Key outcome parameters included mortality, blood pressure, proteinuria, kidney histology and gene expression.
Female TGR(mRen2)27 renin rats aged 10 to 20 weeks are randomized to different pharmacological treatment groups and a placebo group. In addition, the nitrogen monoxide synthase inhibitor L-NAME is administered via the drinking water in a concentration of 20 to 100 mg/l. During the entire experiment, drinking water and feed are available ad libitum to the animals. The substances are administered via the feed or daily by gavage for 4-10 weeks. Animals treated in the same way but receiving either only the solvent or the feed without test substance serve as placebo group. During the experiment, the systolic blood pressure is determined at regular intervals using a tail cuff, and proteinuria (expressed as ratio of urinary protein concentration per urinary creatinine concentration) and urine electrolyte composition are determined by collecting the urine in metabolic cages, and mortality is registered on a daily base.
The urine volume per collection time was determined separately for each animal, and the concentration of urinary glucose and electrolyte ions excreted in the urine was measured by standard methods by a clinical-chemical analyzer system (ADVIA 2400, Siemens). The urine was typically collected for 24 hours in metabolic cages.

[4] = Table 5, monotherapy 0.03 mg/kg oral
[5] = Table 5, monotherapy 0.3 mg/kg oral
[6] = Table 5, monotherapy 3 mg/kg oral
[7] = Table 5 study, monotherapy 3 mg/kg
[8] = Table 5 study, monotherapy: dapagliflozin 0.03 and 0.3 mg/kg, finerenone 1 mg/kg
[9] = Table 5 study, monotherapy: dapagliflozin all doses (0.03, 0.3, 3 mg/kg), finerenone 1 mg/kg
[10] = Table 2, monotherapy 1 mg/kg oral
[11] = Table 2, monotherapy 3 mg/kg oral
[12] = Table 2, monotherapy 10 mg/kg oral
[13] = Table 2 study, monotherapy: empagliflozin 1, 3, 10 mg/kg, finerenone 1 mg/kg
[14] = Table 4, monotherapy 1 mg/kg oral
[15] = Table 4 study, monotherapy: canagliflozin 1 and 3 mg/kg, finerenone 1 mg/kg
[16] = Table 5, monotherapy 1 mg/kg oral

CCOc1ccc(Cc2cc([C@@H]3O[C@H](CO)[C@@H](O)[C@H](O)[C@H]3O)ccc2Cl)cc1 [dapagliflozin, (2S,3R,4R,5S,6R)-2-[4-chloro-3-[(4-ethoxyphenyl)methyl]phenyl]-6-(hydroxymethyl)oxane-3,4,5-triol]
Urinary Glucose concentration [1, 4]: 0.72 ± 0.18 mmol
Urinary K+ concentration [1, 4]: 2.21 ± 0.16 mmol
Urinary Na+ concentration [1, 4]: 0.19 ± 0.05 mmol
Urinary Volume/ body weight [1, 4]: 0.03917 ± 0.00408 L/kg
Urinary Glucose concentration [1, 5]: 5.26 ± 0.29 mmol
Urinary K+ concentration [1, 5]: 2.43 ± 0.07 mmol
Urinary Na+ concentration [1, 5]: 0.19 ± 0.04 mmol
Urinary Volume/ body weight [1, 5]: 0.03884 ± 0.00394 L/kg
Urinary Glucose concentration [1, 6]: 9.71 ± 0.36 mmol
Urinary K+ concentration [1, 6]: 2.34 ± 0.10 mmol
Urinary Na+ concentration [1, 6]: 0.29 ± 0.05 mmol
Urinary Volume/ body weight [1, 6]: 0.04872 ± 0.00153 L/kg
influence on urinary sodium, in words [1, 7]: increase
influence on urinary volume, in words [1, 7]: increase
influence on urinary potassium, in words [1, 8]: no influence
influence on urinary sodium, in words [1, 8]: no influence
influence on urinary volume, in words [1, 8]: no influence
influence on urinary glucose, in words [1, 9]: strong increase
natriuresis, in words (healthy volunteers): returned to baseline after 13 days of intervention

OC[C@H]1O[C@@H](c2ccc(Cl)c(Cc3ccc(O[C@H]4CCOC4)cc3)c2)[C@H](O)[C@@H](O)[C@@H]1O [empagliflozin, (2S,3R,4R,5S,6R)-2-[4-chloro-3-[[4-[(3S)-oxolan-3-yl]oxyphenyl]methyl]phenyl]-6-(hydroxymethyl)oxane-3,4,5-triol]
Urinary Glucose concentration ([2]; monotherapy 3 mg/kg): 321.55 ± 22.78 mmol
Urinary K+ concentration ([2]; monotherapy 3 mg/kg): 2.22 ± 0.13 mmol
Urinary Na+ concentration ([2]; monotherapy 3 mg/kg): 1.47 ± 0.10 mmol
Urinary Volume/ body weight ([2]; monotherapy 3 mg/kg): 0.09998 ± 0.00712 L/kg
Urinary Glucose concentration ([2]; monotherapy 10 mg/kg): 317.16 ± 25.10 mmol
Urinary K+ concentration ([2]; monotherapy 10 mg/kg): 2.64 ± 0.20 mmol
Urinary Na+ concentration ([2]; monotherapy 10 mg/kg): 2.05 ± 0.27 mmol
Urinary Volume/ body weight ([2]; monotherapy 10 mg/kg): 0.11038 ± 0.00455 L/kg
urinary sodium excretion higher in comparison to solvent control group A ([2]; monotherapy 3 mg/kg): 27.2%
influence on urinary glucose vs solvent, in words [2]: increases
influence on urinary potassium vs solvent, in words [2]: increases
influence on urinary sodium vs solvent, in words [2]: increases
influence on urinary volume vs solvent, in words [2]: increases
Urinary Glucose concentration [1, 10]: 0.34 ± 0.10 mmol
Urinary K+ concentration [1, 10]: 1.66 ± 0.11 mmol
Urinary Volume/ body weight [1, 10]: 0.0278 ± 0.00358 L/kg
Urinary Glucose concentration [1, 11]: 1.21 ± 0.21 mmol
Urinary K+ concentration [1, 11]: 1.74 ± 0.15 mmol
Urinary Na+ concentration [1, 11]: 0.13 ± 0.02 mmol
Urinary Volume/ body weight [1, 11]: 0.02296 ± 0.00275 L/kg
Urinary Glucose concentration [1, 12]: 4.26 ± 0.59 mmol
Urinary K+ concentration [1, 12]: 1.85 ± 0.11 mmol
Urinary Na+ concentration [1, 12]: 0.17 ± 0.03 mmol
Urinary Volume/ body weight [1, 12]: 0.02845 ± 0.00191 L/kg
influence on urinary glucose, in words [1, 13]: dose-dependent and strong increase
influence on urinary potassium, in words [1, 13]: no influence
influence on urinary sodium, in words [1, 13]: no influence
influence on urinary volume, in words [1, 13]: no influence
proteinuria reduction ([3]; 3 mg/kg once daily orally): −38%
proteinuria reduction ([3]; 10 mg/kg once daily orally): −64%
glucosuric action, in words ([3]; once daily orally): strongly glucosoric
renal histology parameters / renal lesions, in words ([3]; once daily orally): comparable protection from renal lesions at higher dosages

CCOc1ncc(C)c2c1[C@H](c1ccc(C#N)cc1OC)C(C(N)=O)=C(C)N2 [finerenone, (S)-4-(4-cyano-2-methoxyphenyl)-5-ethoxy-2,8-dimethyl-1,4-dihydro-1,6-naphthyridin-3-carboxamide]
Urinary Glucose concentration ([2]; monotherapy 3 mg/kg): 291.98 ± 19.11 mmol
Urinary K+ concentration ([2]; monotherapy 3 mg/kg): 1.94 ± 0.14 mmol
Urinary Na+ concentration ([2]; monotherapy 3 mg/kg): 1.39 ± 0.12 mmol
Urinary Volume/ body weight ([2]; monotherapy 3 mg/kg): 0.08184 ± 0.01199 L/kg
Urinary Glucose concentration ([2]; monotherapy 10 mg/kg): 272.62 ± 22.51 mmol
Urinary K+ concentration ([2]; monotherapy 10 mg/kg): 1.75 ± 0.06 mmol
Urinary Na+ concentration ([2]; monotherapy 10 mg/kg): 1.30 ± 0.08 mmol
Urinary Volume/ body weight ([2]; monotherapy 10 mg/kg): 0.05682 ± 0.00259 L/kg
urinary sodium excretion higher in comparison to solvent control group A ([2]; monotherapy 3 mg/kg): 20.1%
influence on urinary glucose vs solvent, in words [2]: no influence
influence on urinary potassium vs solvent, in words [2]: no influence
influence on urinary sodium vs solvent, in words [2]: no influence
influence on urinary volume vs solvent, in words [2]: no influence
Urinary Glucose concentration [1, 10]: b.d.l.
Urinary K+ concentration [1, 10]: 1.46 ± 0.12 mmol
Urinary Na+ concentration [1, 10]: 0.43 ± 0.03 mmol
Urinary Volume/ body weight [1, 10]: 0.0219 ± 0.00186 L/kg
influence on urinary glucose, in words [1, 13]: no influence
influence on urinary potassium, in words [1, 13]: no influence
influence on urinary sodium, in words [1, 13]: increase
influence on urinary volume, in words [1, 13]: no influence
Urinary Glucose concentration [1, 14]: b.d.l.
Urinary K+ concentration [1, 14]: 1.76 ± 0.11 mmol
Urinary Na+ concentration [1, 14]: 0.27 ± 0.06 mmol
Urinary Volume/ body weight [1, 14]: 0.02932 ± 0.00294 L/kg
influence on urinary potassium, in words [1, 15]: no influence
influence on urinary sodium, in words [1, 15]: weak increase
influence on urinary volume, in words [1, 15]: no influence
influence on urinary glucose, in words ([1]; Table 4 study, monotherapy: canagliflozin all doses (1, 3, 10 mg/kg), finerenone 1 mg/kg): no influence
Urinary Glucose concentration [1, 16]: b.d.l.
Urinary K+ concentration [1, 16]: 1.84 ± 0.10 mmol
Urinary Na+ concentration [1, 16]: 0.33 ± 0.43 mmol
Urinary Volume/ body weight [1, 16]: 0.02344 ± 0.00162 L/kg
influence on urinary potassium, in words [1, 8]: no influence
influence on urinary sodium, in words [1, 8]: increase
influence on urinary volume, in words [1, 8]: no influence
influence on urinary glucose, in words [1, 9]: no influence
proteinuria reduction ([3]; 1 mg/kg once daily orally): −27%
proteinuria reduction ([3]; 3 mg/kg once daily orally): −87%
renal histology parameters / renal lesions, in words ([3]; once daily orally): comparable protection from renal lesions at higher dosages
systolic blood pressure, in words ([3]; once daily orally): significantly decreased
